Common to all, as to assay: biochemical
The target in one test is DRB4*0101 (Homo sapiens, UniProt P01903+P13762, G164S). It is filed as binding.
A further test addresses DR1 (DRB1*0101) (Homo sapiens, UniProt P01903+P01911, A100R/D57E/F55L/F60I/F76Y/I96L/L162R/M171V/P40L/Q125E/R42F/V115G/Y59C). Type of test: binding.
The target of another test is DR7 (DRB1*0701) (Homo sapiens, UniProt P01903+P01911, A100R/A102G/A103Q/D57E/D86V/E43K/F76Y/K127E/L162R/M171V/P40G/Q125H/Q99D/R33Q/R42Y/R54Q/S133A/S66F/T210M/V115G/Y107V/Y59L/Y89S). Type of test: binding.
A further test has as its target DRB1*1201 (Homo sapiens, UniProt P01903+P01911, A100R/A169T/D57E/D86V/F55L/H45Y/K41T/L162R/M171V/P40S/Q125H/Q178H/Q39Y/Q99D/R42G/S66L/T262R/V114A/V67L/W38E/Y59H/Y61H/Y89S). It is filed as binding.
A further test concerns the target DRB1*1501 (Homo sapiens, UniProt P01903+P01911). Type of test: binding.
The next test deals with DRB5*0101 (Homo sapiens, UniProt P01903+Q30154). The conditions noted are these: Binding affinity DRB5 *0101.
Another test deals with DRB1*0901 (Homo sapiens, UniProt P01903+P01911, A100R/A103E/D57H/D86V/F55Y/F60I/F76Y/I96F/K127E/L162R/M171V/P40D/Q125H/Q99R/R33Q/R42F/S133A/S66N/T210M/V115G/W38K/Y107V/Y59G/Y89S). It is filed as binding.
Another test deals with DRB1*1302 (Homo sapiens, UniProt P01903+P01911, A100E/A169T/K41T/L162R/M171V/P40S/Q125H/Q178H/Q39Y/Q99D/R42S/S66N/T262R/V115G/W38E/Y61H). It is filed as binding.
Another test deals with DRB1*1101 (Homo sapiens, UniProt P01903+P01911, A100R/A169T/A87E/I96F/K41T/L162R/M171V/P40S/Q125H/Q178H/Q39Y/Q99D/R42S/S66Y/T262R/V115G/W38E). To be noted: Binding affinity DRB1 *1101.
The target of another test is DRB1*0405 (Homo sapiens, UniProt P01903+P01911, A100R/A169T/D86S/F76Y/I96L/K127E/L162R/M171V/N62H/P40V/Q125Y/R42H/S133A/S149N/S66Y/V115G/V209L/W38E). It is filed as binding.
The target in another test is DRB1*0802 (Homo sapiens, UniProt P01903+P01911, A100R/A103L/A169T/F76Y/H45Y/I96F/K41T/L162R/M171V/P40S/Q125H/Q178H/Q39Y/Q99D/R218S/R42G/S66Y/V115G/W38E). It is filed as binding.
The next test concerns the target DR4w4 (DRB1*0401) (Homo sapiens, UniProt P01903+P01911, A100K/A169T/F76Y/I96L/K127E/L162R/M171V/N62H/P40V/Q125Y/R42H/S133A/S149N/S66Y/V115G/V209L/W38E). Type of test: binding.

pIC50: −log10 of the molar value. No end group written: not given here.

The record followed here is patent US9340577B2, “HLA binding motifs and peptides and their uses” (priority 1992, dated 2016).

Sequence of DRB1*1302 (P01903 26-254 limits assumed, other chains not shown): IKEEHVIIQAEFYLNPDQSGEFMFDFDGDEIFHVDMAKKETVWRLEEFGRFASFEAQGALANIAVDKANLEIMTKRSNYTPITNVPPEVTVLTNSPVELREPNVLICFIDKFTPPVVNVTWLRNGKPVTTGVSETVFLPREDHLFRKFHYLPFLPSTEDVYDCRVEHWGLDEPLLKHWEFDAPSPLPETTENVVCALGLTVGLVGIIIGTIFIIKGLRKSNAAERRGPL
Sequence of DRB1*1101 (P01903 26-254 limits assumed, other chains not shown): as above

Consider CWNYIDDNLRNALDG [Peptide 90.0041], for which the pIC50 on DRB4*0101, against DR1 (DRB1*0101), against DR7 (DRB1*0701), on DRB1*1201, at DRB1*1501 and at DRB5*0101 was less than 4.70 in each case. The pIC50 against DRB1*0901, against DRB1*1302, on DRB1*1101, against DRB1*0405 and on DRB1*0802 was less than 4.70 in each case.

On to DPRWPYLHSRLVVFH [Peptide 89.0113], for which the pIC50 (as a rule, −log10 of the IC50, conventionally taken in molar units) against DRB4*0101 is 7.01; against DR4w4 (DRB1*0401) it was 6.86; at DR7 (DRB1*0701) it was 7.05; on DRB1*1201, 5.23; against DRB1*0901, 5.27; at DRB1*1302 it was 7.89. Also, the pIC50 was 5.29 on DRB1*1101, 5.21 against DRB1*0405 and 4.70 against DRB1*0802.

Regarding GVYYIKDGDTTYYVQ [Peptide 90.0216], the pIC50 on DRB4*0101 is less than 4.70; against DR1 (DRB1*0101), 5.81; against DR4w4 (DRB1*0401), 5.60; against DRB1*1201 it was 5.24; at DRB1*1501, less than 4.70; at DRB5*0101, less than 4.70. Also, the pIC50 was 5.79 against DRB1*0901, less than 4.70 at DRB1*1101, 5.15 against DRB1*0405 and 5.25 at DRB1*0802.

Take LIRMECAIMYTARQM [Peptide 90.0022]: the negative-log IC50 (pIC50) was 6.80 against DRB4*0101; 6.36 at DR4w4 (DRB1*0401); 6.33 against DR7 (DRB1*0701); 6.70 against DRB1*1201; 5.83 at DRB1*1501; 5.19 on DRB5*0101. Also, the pIC50 on DRB1*0901 was 5.38; on DRB1*1302, 6.62; on DRB1*1101, 6.13; against DRB1*0405 it was 6.09; against DRB1*0802, 5.51.

With LNVLKTSNAKAAMLA [Peptide 89.0003], the pIC50 on DRB4*0101 is 6.29; against DR1 (DRB1*0101), 7.48; at DR4w4 (DRB1*0401), 8.47; against DR7 (DRB1*0701), 7.70; against DRB1*1201, 6.27; at DRB5*0101, 6.11. Also, the pIC50 against DRB1*0901 was 6.71; against DRB1*1302, 8.05; on DRB1*1101, 6.70; on DRB1*0405, 5.62.

In the case of LSHVKIPVVYRLVWD [Peptide 90.0020], the pIC50 at DRB4*0101 is 7.66; against DR1 (DRB1*0101) it was 7.10; against DR4w4 (DRB1*0401), 5.40; against DRB1*1201, 7.00; at DRB5*0101, 5.87; against DRB1*0901, 6.33. Besides, the pIC50 was 6.48 on DRB1*1302, 6.28 at DRB1*0405 and 5.45 against DRB1*0802.

Consider MAIFGVNPTVAEGFK [Peptide 89.0081], for which the pIC50 on DRB4*0101 is 6.37; on DR4w4 (DRB1*0401), 7.12; on DRB1*1201 it was 5.92; against DRB1*0901, 5.81; against DRB1*1302, 7.46; at DRB1*1101, 7.39. In addition, the pIC50 at DRB1*0405 is 7.44; against DRB1*0802, 5.96.

On to RLNLDNDEDKENNGD [Peptide 90.0144], for which the pIC50 against DRB4*0101 is 7.60; against DR1 (DRB1*0101) it was 7.51; against DR4w4 (DRB1*0401), 5.75; against DR7 (DRB1*0701), 6.06; at DRB1*1201, 5.36; at DRB1*1501, 6.24. The pIC50 against DRB1*0901 was 4.71; at DRB1*1302 it was 5.86; at DRB1*1101, 5.80; against DRB1*0405, 5.77; at DRB1*0802, 5.40.

As for TPEWIQRQTVLQHSF [Peptide 89.0010], the pIC50 was 7.48 against DRB4*0101; 7.10 against DR4w4 (DRB1*0401); 6.49 against DR7 (DRB1*0701); less than 4.70 against DRB1*1201; less than 4.70 at DRB1*1501; 5.39 at DRB5*0101. The pIC50 against DRB1*0901 was 5.54; against DRB1*1302 it was 5.68; on DRB1*1101, 6.13; on DRB1*0405, 7.77; on DRB1*0802, 5.70.
